Measured values from patent US9834820B2, “Methods for the treatment and diagnosis of bone mineral density related diseases” (INSERM (Institut National de la Sante et de la Recherche …, priority 2007, dated 2017).
“Also recorded” adds a separate entry of the source.

Assays:
[1] = test system: RANKL expression in primary cultured osteoblasts; assay: real-time quantitative PCR of RANKL mRNA in primary cultured osteoblasts; assay type: cell-based, human; settings: for RANKL mRNA levels (in words): osteoblasts, FIG. 2b
Description: (§1) Human normal cranial suture were obtained after signed informed consent during routine surgery for craniosynostosis. Osteoblasts were cultured in Dulbecco's modified Eagle medium (with 10% fetal bovine serum) as described elsewhere (De Pollack, C. et al. 1996). […] Cells were harvested at day 3. Real-time quantitative PCR using Light Cycler technology (Roche Manheim) was performed for OPG and RANKL mRNA in each sample. The experiments were performed five times. In each experiment, samples were run in triplicate. The amounts of OPG and RANKL mRNA were normalized to the amount of β-actin mRNA. Student test was used for p values determination.

[2] = test system: OPG expression in primary cultured osteoblasts; assay: real-time quantitative PCR of OPG mRNA in primary cultured osteoblasts; assay type: cell-based, human; settings: for OPG expression compared to control values: p<0.005; for OPG mRNA levels (in words): osteoblasts, FIG. 2b
Description: as §1

[3] = test system: TXAS; settings: read-out: IC50 as selective inhibitor of TXAS; cited from earlier work

Row | SMILES | RANKL expression compared to control values ([1]; CTA2 5 μM added at day one, harvested day 3, p<0.005) | RANKL expression compared to control values ([1]; CTA2 15 μM added at day one, harvested day 3, p<0.03) | RANKL mRNA levels (in words) [1] | OPG expression compared to control values ([2]; CTA2 5 μM added at day one, harvested day 3) | OPG expression compared to control values ([2]; CTA2 15 μM added at day one, harvested day 3) | OPG mRNA levels (in words) [2] | RANKL expression compared to control values ([1]; Ozagrel 0.25 μM added daily during 3 days, normalized to β-actin mRNA, p<0.005) | OPG expression compared to control values ([2]; Ozagrel 0.25 μM added daily during 3 days, normalized to β-actin mRNA) | IC50 [3]
1 | CCCCC[C@H](O)/C=C/[C@H]1CC2CC(C2)[C@@H]1C/C=C\CCCC(=O)O [CTA2] | +94% | +471% | augmentation; also recorded: increased | −40% | −53% | diminution; also recorded: decreased |  |  | 
2 | O=C(O)/C=C/c1ccc(Cn2ccnc2)cc1 [Ozagrel] |  |  | diminution |  |  | augmentation | −78% | +50% | 11 nM
